Laboratory results from US6451809B2 (dated 2002).

SMILES: Cc1ccc(CNC(=O)C2=C3N(CCC2=O)c2ccccc2N3CCN(C)C)cc1
- melting point: 120 to 122 °C

SMILES: CCNCCOc1ccc(NC(=O)C2=C(O)CCn3c2nc2ccccc23)cc1.Cl
- melting point: 60 to 65 °C

SMILES: Cl.O=C(Nc1ccc(OCCN2CCCC2)cc1)C1=C(O)CCn2c1nc1ccccc12
- melting point: 130 to 142 °C

SMILES: CCN(CC)CCOc1ccncc1NC(=O)C1=C(O)CCn2c1nc1ccccc12.Cl
- melting point: 175 to 178 °C

SMILES: Cl.O=C(Nc1cnccc1OCCN1CCCC1)C1=C(O)CCn2c1nc1ccccc12
- melting point: 170 to 174 °C

SMILES: Cl.O=C(Nc1cnccc1OCCN1CCCCC1)C1=C(O)CCn2c1nc1ccccc12
- melting point: 225 to 230 °C

SMILES: Cl.O=C(Nc1cnccc1OCCOCCN1CCCC1)C1=C(O)CCn2c1nc1ccccc12
- melting point: 55 to 65 °C

SMILES: Cl.O=C(Nc1cnccc1OCCCN1CCCC1)C1=C(O)CCn2c1nc1ccccc12
- melting point: 60 to 68 °C

SMILES: CN(C)CCN1C2=C(C(=O)NCc3ccccc3Cl)C(=O)CCN2c2ccccc21
- melting point: 138 to 140 °C
